# Measurements published in patent US20040186166A1, “Cannabinoid analogs as peroxisome proliferator activated nuclear receptor gamma activators” (priority 2002, published 2004).
# Tests used:
# [1] = molecular target: T1, PPARγ ΔAF2 mutant (Mus musculus, UniProt P37238); assay: PPRE-Luc reporter assay, AF-2 helix-truncated PPARγ; assay type: cell-based
# T1 construct: introduce a stop codon and a NheI restriction site after amino acid 489; expressed in transfected cells; host or cells: HEK293
# T1 sequence (P37238 1-459 isoform P37238-2): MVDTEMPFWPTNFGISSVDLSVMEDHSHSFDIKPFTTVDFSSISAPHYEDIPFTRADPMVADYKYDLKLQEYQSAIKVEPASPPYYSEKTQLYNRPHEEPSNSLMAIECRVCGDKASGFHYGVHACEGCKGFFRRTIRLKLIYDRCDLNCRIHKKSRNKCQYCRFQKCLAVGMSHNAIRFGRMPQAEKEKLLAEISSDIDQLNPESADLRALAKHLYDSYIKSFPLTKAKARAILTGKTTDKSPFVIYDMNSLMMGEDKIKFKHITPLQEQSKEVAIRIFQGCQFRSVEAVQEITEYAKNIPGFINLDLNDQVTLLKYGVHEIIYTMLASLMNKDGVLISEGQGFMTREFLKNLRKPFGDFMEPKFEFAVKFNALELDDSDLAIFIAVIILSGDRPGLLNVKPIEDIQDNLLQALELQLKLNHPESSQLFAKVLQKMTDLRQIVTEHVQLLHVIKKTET
# Description: The-pCMX-Gal4-mPPARγ1 was constructed by fusing the mPPARγ1 coding sequence to the yeast GAL4 DNA binding domain (amino acid 1-147) in the pCMX vector. The AF-2 helix-truncated mutant of mPPARγ1 (PPARγ ΔAF2) was generated by PCR amplification-to introduce a stop codon and a NheI restriction site after amino acid 489, and then-subcloned into the pCMX vector. The PPRE-TK-LUC, MH100-TK-LUC-and DR1-TK-LUC reporters have been described previously (Forman et al., Cell 83:803-812, 1995; Umesono et al., Cell 65:1255-1266, 1991).
# For PPARγ activation assay, HEK293 cells were plated in 12-well cell culture plates and maintained in Dulbecco's modified Eagle's medium (DMEM) supplemented with 10% fetal bovine serum (FBS) at 37° C. under 5% CO2. Cells were changed to phenol red-free DMEM supplemented with 10% charcoal-stripped fetal bovine serum 3 hours before transfection by a standard calcium-phosphate precipitation method. Twelve hours after transfection, the cells were washed with phosphate-buffered saline (PBS) and fed again with fresh medium containing the indicated concentrations of compounds. After 36 hours, cells were harvested for β-galactosidase and luciferase activities as described previously (Li et al., Proc Natl Acad Sci USA 94:8479-84, 1997). The average normalized luciferase activity was determined via triplicate experiments. […]
# [2] = test system: PPARγ2 and aP2 gene expression in 3T3 L1 cells; assay: RT-PCR of adipocyte-specific genes; assay type: cell-based; conditions: versus vehicle control
# Experimental: The adipocyte differentiation assay was performed as described by Mukherjee et. al. (Mol Endocrinol 14: 1425-33, 2000). The 3T3 L1 cells (American Type Culture Collection) were cultured in DMEM media supplemented with 10% calf serum. Two days after reaching confluence, cells were treated with AJA, GW347845, or vehicle (0.1% DMSO) in the presence of 10 μg/ml insulin every other day. After 10 days of treatment with AJA or 7 days with GW347845 at confluence, cells were fixed and stained with Oil Red O (Sigma). For RT-PCR, total cellular RNAs were isolated by TRIzol (Gibco). Reverse transcriptase polymerase chain reaction (RT-PCR) was performed using the superscript first-strand synthesis kit (Invitrogen). After first-strand cDNA was synthesized by use of oligo (dT), cDNA was amplified by PCR. The forward primers and reverse primers used in the amplifications were 5′-GCTGTTATGGGTGAAACTCTGGGAG-3′(SEQ ID NO: 1), and 5′-CTTCATGAGGCCTGTTGTAGAGC-3′ (SEQ ID NO:2), for PPARγ2, 5′-GAGCAAATGGAGTTCCCAGATG-3′ (SEQ ID NO: 3), and 5′-GCAAACAATGGGAATAGTTCACAGTAG-3′ (SEQ ID NO: 4), for aP2, and 5′-GACCACAGTCCATGCCATCAC-3′(SEQ ID NO: 5), and 5′-CATACCAGGAAATGAGCTGAC-3′ (SEQ ID NO: 6), for GAPDH. PCR amplifications were performed in 50 μL volume with Taq DNA polymerase for 30 cycles.
# To confirm that AJA and GW347845 induce 3T3 L1 cell differentiation into adipocytes, the expression levels of the adipocyte-specific genes PPARγ2 and aP2 were measured by RT-PCR. Total RNA was isolated after AJA or GW347845 treatment, and compared with vehicle control. Reverse transcription was conducted and the relative amounts of PPARγ2 and aP2 transcripts were measured by PCR reactions using primer sets specific to each gene. PCR products were analyzed on 1% agarose gel and stained with Ethidium Bromide. […] As a control for the induction specificity and the PCR amplification reaction, the expression levels of GADPH were measured in all samples, and found not affected by any treatment.
# [3] = molecular target: CB2 (Homo sapiens, UniProt P34972); conditions: Recht et al. 2001; cited from earlier work
# Sequence of CB2 (P34972 whole entry, species assumed): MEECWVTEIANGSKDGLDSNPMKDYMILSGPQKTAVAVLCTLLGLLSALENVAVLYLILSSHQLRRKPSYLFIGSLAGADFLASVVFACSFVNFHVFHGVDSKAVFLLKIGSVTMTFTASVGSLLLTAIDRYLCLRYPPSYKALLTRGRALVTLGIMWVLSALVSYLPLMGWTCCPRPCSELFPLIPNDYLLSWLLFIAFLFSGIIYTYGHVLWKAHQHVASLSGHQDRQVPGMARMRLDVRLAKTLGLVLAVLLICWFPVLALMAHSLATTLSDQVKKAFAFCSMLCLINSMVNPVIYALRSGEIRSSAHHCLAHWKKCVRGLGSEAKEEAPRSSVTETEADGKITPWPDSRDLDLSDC
compound,measurement,setting,value
"CCCCCCC(C)(C)c1cc(O)c2c(c1)OC(C)(C)[C@@H]1CC=C(C(=O)O)C[C@@H]21 [AJA, dimethylheptyl-THC-11-oic acid]",activation of PPRE-Luc reporter through PPARγ ΔAF2 mutant,[1],failed to activate expression of the reporter gene
same,PPARγ2 gene expression,[2],enhanced PPARγ2 and aP2 gene expression significantly
same,aP2 gene expression,[2],enhanced PPARγ2 and aP2 gene expression significantly
same,affinity to CB2,[3],modest affinity
